Assay results as given in the supplement of paper PMC9912026.

Tested on: HT29
Experiment: pERK immunofluorescence normalised to no-drug reference (=1); higher = more ERK phosphorylation (less pathway inhibition)
Conditions: drug treatment time 24 h, EGF time 8 h
Method: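 A375 CRISPRa-EGFR (A375_aEGFR2) or HT29 cells were treated with two-drug dose combinations (vemurafenib, LY3009120, cobimetinib) for 24 h, then stimulated with EGF (100 ng/mL) or mock medium for 8 h. pERK (T202/Y204) was measured by immunofluorescence as the cytosolic population average, normalised to an untreated no-drug reference of the block (=1). Averages of 2 technical replicates. A375 in 5% FBS, HT29 in 10% FBS.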

CCCS(=O)(=O)Nc1ccc(F)c(C(=O)c2c[nH]c3ncc(-c4ccc(Cl)cc4)cc23)c1F [Vemurafenib] + O=C(c1ccc(F)c(F)c1Nc1ccc(I)cc1F)N1CC(O)([C@@H]2CCCCN2)C1 [Cobimetinib]
pERK immunofluorescence normalised
Conditions	drug B concentration 0 µM	drug B concentration 0.0001 µM	drug B concentration 0.0003162 µM	drug B concentration 0.001 µM	drug B concentration 0.00316228 µM	drug B concentration 0.01 µM	drug B concentration 0.0316228 µM	drug B concentration 0.1 µM	drug B concentration 0.316228 µM	drug B concentration 1 µM
drug A concentration 0.0316 µM, EGF 0 ng/mL	–	–	–	–	–	–	0.129	0.0998	0.0935	0.095
drug A concentration 0.0316 µM, EGF 100 ng/mL	–	–	–	–	–	0.818	0.699	0.467	0.211	0.109
drug A concentration 0.1 µM, EGF 0 ng/mL	0.43	0.429	0.451	0.339	0.213	0.148	0.124	0.109	0.101	0.1
drug A concentration 0.1 µM, EGF 100 ng/mL	0.824	0.844	0.967	0.948	0.882	0.755	0.699	0.437	0.212	0.112
drug A concentration 0.316228 µM, EGF 0 ng/mL	0.261	0.305	0.273	0.251	0.166	0.133	0.115	0.104	0.101	0.0973
drug A concentration 0.316228 µM, EGF 100 ng/mL	0.765	0.827	0.843	0.882	0.815	0.767	0.626	0.458	0.206	0.109
drug A concentration 1 µM, EGF 0 ng/mL	0.201	0.205	0.203	0.178	0.146	0.125	0.111	0.101	0.0945	0.0941
drug A concentration 1 µM, EGF 100 ng/mL	0.754	0.764	0.815	0.808	0.746	0.713	0.606	0.363	0.177	0.104
drug A concentration 3.16 µM, EGF 0 ng/mL	0.162	0.165	0.171	0.144	0.134	0.119	0.113	0.0971	0.0922	0.0932
drug A concentration 3.16 µM, EGF 100 ng/mL	0.69	0.73	0.731	0.772	0.663	0.562	0.414	0.215	0.115	0.093
drug A concentration 10 µM, EGF 0 ng/mL	0.187	0.177	0.202	0.185	0.158	0.133	0.106	0.091	0.0912	0.0919
drug A concentration 10 µM, EGF 100 ng/mL	0.541	0.517	0.524	0.486	0.441	0.323	0.187	0.107	0.0914	0.09
